pIC50: −log10 of the molar value. Active and inactive are the calls of the source. No cut-off for these calls is given here.
Legend:
[1] = molecular target: T1, Receptor-type tyrosine-protein phosphatase epsilon (Homo sapiens, UniProt P23469); assay: Inhibition of recombinant human cytosolic PTPepsilon expressed in Escherichia coli BL21 (DE3) using E527-P-Q-pY530-Q-P-G-E-N-L536 as substrate after 60 mins by malachite green assay
[2] = molecular target: T1, Receptor-type tyrosine-protein phosphatase epsilon; assay: Inhibition of cytosolic PTPepsilon in human monocyte-derived osteoclasts assessed as disruption of podosome organization at 17 uM after 4 days in presence of M-CSF/RANKL by DAPI staining-based immunofluorescence assay
Osteoclast [3] = assay: Effect on relative level of total c-Src/beta-actin in human monocyte-derived osteoclasts at 17 uM after 15 mins in presence of M-CSF/RANKL by Western blot method relative to control; assay type: cell-based; conditions: 0.25 h
Osteoclast [4] = assay: Cytotoxicity against human monocyte-derived osteoclasts assessed as effect on cell viability at 2 to 17 uM by formazan-based spectrometric method
[5] = molecular target: T1, Receptor-type tyrosine-protein phosphatase epsilon; assay: Inhibition of cytosolic PTPepsilon in human monocyte-derived osteoclasts assessed as relative level of Tyr530 phosphorylated c-Src/beta actin at 17 uM after 15 mins in presence of M-CSF/RANKL by Western blot method relative to control
Monocyte = assay: Inhibition of RANKL-induced human monocytes differentiation into osteoclasts after 4 days in presence of M-CSF by tartrate-resistant acid phosphatase staining based assay; assay type: functional, cell-based

T1 sequence (P23469 whole entry): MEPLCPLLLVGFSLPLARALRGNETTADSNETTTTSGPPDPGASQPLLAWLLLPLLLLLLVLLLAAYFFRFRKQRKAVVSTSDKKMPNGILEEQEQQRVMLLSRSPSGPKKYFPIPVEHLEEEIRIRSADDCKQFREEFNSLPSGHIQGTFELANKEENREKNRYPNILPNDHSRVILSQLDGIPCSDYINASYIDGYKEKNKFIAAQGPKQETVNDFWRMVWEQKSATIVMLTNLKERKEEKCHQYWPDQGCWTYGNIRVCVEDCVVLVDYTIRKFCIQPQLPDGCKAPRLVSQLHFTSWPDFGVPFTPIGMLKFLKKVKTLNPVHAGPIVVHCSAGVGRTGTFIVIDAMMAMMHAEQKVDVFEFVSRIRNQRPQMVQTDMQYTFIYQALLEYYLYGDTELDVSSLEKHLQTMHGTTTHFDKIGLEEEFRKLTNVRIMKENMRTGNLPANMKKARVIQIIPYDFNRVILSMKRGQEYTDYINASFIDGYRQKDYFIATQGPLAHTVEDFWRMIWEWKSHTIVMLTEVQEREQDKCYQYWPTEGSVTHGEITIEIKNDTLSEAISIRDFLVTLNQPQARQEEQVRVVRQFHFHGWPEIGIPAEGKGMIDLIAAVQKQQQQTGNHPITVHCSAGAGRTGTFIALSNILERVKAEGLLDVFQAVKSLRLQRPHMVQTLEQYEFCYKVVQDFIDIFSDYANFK

Row | SMILES | pIC50 [1] | inhibition [2] | fold change (FC) (Osteoclast [3]) | Activity (Osteoclast [4]) | fold change (FC) [5] | inhibition (Monocyte)
1 | CCC(C)c1ccc(OCc2nnc(NC(=O)Nc3ccccc3OC)s2)cc1 (stereo not given) | 5.38 |  |  |  |  | 
2 | Cc1ccc(NC(=O)Nc2nnc(COc3ccc(C)cc3C)s2)cc1 | 5.61 | Active | 1.12 | Non-Toxic | 1.87 | Dose-dependent effect
3 | Cc1ccc(OCc2nnc(NC(=O)Nc3ccc(F)c(Cl)c3)s2)c(C)c1 | 5.73 | Active | 1.29 | Non-Toxic | 1.57 | Dose-dependent effect
4 | O=C(COc1ccc2c(c1)OCO2)Nc1nnc(COc2ccc(Cl)cc2)s1 | 5.70 |  |  |  |  | 
5 | COc1ccccc1OCC(=O)Nc1nnc(COc2ccccc2)s1 | 5.43 |  |  |  |  | 
